Reference: patent US20230219965A1 (KSQ Therapeutics, Inc., priority 2020, published 2023)
pIC50: −log10 of the molar value.

molecular target: USP1/UAF1 enzyme (Homo sapiens, UniProt O94782); test: USP1/UAF1 deubiquitination assay (ubiquitin-rhodamine 110 substrate); format: biochemical; conditions: read-out: USP1 IC50 (Ub-Rho)
Description: Certain Compounds of the Disclosure were assessed for USP1/UAF1 activity in a Ubiquitin Rhodamine assay modified from those described previously.
Deubiquitinase activity was measured using ubiquitin-rhodamine 110 as a substrate. Cleavage of the amide bond between rhodamine and the c-terminal glycine of ubiquitin yields an increase in fluorescence signal. The assay was conducted in 20 μl total volume of assay buffer (50 mM Tris-HCl, pH 7.8, 0.5 mM EDTA, 0.01% Bovine Serum Albumin, 1 mM DTT, 0.01% Tween-20), and 0.05 nM USP1/UAF1 enzyme. Reaction was initiated by addition of 150 nM Ubiquitin-rhodamine (Boston Biochem) substrate.
Compounds of the Disclosure, dissolved in DMSO were tested in dose response format, beginning at […].
The example compounds listed below were added to enzyme/assay buffer mix and incubated 10 min. Substrate mix was added, and reaction mix was read in kinetic mode for 30 min at Ex480/Em540 and IC50 response curves were plotted.
Data for all assay formats was calculated as percent inhibition compared with control wells. Percent inhibition was calculated using the following equation: % inhibition=100×[1−(X−min)/(max−min)], where X is the raw data readout, min is the average of the no enzyme control wells (n=32), max is the average of the DMSO control well (n=32). IC50 values were calculated using the standard four parameter curve fitting algorithm in either Prism GraphPad (La Jolla, Calif.) software, or Collaborative Drug Discovery (Burlingame, Calif.) CDD Vault. See Chem. Biol. 20(1): 55-62 (Jan. 24, 2013); Bioorg. Med. Chem. Lett. 23(20): 5660-5666 (Oct. 15, 2013).

Chain of USP1/UAF1 enzyme (O94782 whole entry): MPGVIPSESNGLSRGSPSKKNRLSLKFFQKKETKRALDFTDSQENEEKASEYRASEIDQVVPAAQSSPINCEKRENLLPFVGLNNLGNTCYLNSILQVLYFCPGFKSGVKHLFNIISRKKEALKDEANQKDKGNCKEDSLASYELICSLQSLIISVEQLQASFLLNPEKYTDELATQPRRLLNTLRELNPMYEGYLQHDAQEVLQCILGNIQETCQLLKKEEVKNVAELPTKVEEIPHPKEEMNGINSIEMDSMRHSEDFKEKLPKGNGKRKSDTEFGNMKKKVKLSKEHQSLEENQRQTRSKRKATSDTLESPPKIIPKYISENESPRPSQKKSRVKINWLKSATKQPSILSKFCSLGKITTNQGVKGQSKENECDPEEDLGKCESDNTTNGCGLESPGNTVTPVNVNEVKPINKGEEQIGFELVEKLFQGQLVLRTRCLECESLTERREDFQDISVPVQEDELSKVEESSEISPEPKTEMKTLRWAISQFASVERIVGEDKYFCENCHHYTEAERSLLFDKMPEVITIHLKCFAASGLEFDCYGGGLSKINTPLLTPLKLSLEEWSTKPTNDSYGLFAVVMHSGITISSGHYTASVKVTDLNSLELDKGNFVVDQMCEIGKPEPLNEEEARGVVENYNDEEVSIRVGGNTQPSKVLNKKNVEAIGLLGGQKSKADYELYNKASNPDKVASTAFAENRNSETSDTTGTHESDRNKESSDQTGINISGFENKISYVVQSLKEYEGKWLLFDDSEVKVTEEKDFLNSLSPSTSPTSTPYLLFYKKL
Chain of USP1/UAF1 enzyme (Q8TAF3 whole entry partner): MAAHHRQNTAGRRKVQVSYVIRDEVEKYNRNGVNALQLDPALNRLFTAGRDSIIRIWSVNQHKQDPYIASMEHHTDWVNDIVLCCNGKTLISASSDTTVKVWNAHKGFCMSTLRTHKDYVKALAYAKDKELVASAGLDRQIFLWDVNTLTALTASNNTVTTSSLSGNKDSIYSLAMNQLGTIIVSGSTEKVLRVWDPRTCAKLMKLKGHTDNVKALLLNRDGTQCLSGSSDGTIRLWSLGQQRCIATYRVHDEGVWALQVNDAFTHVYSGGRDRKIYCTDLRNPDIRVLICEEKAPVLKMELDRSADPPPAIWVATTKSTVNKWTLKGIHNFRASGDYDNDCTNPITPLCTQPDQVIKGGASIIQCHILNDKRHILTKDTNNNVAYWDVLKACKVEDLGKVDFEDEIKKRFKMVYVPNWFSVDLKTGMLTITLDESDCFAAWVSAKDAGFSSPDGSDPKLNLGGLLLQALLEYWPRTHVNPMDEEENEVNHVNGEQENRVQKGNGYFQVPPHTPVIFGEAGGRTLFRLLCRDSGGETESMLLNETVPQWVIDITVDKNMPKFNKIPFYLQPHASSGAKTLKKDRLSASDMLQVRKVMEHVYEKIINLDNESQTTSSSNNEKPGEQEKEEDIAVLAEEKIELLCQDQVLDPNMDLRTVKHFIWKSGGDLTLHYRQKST

Row | pIC50 | Structure (SMILES)
1 | 6.30 to 7.00 | CCn1cc(C#N)nc1-c1ccc([C@@H](C)N2C(=O)CCn3nc(-c4c(OC)ncnc4C4CC4)nc32)cc1 [Example 199]
2 | > 7.00 | COc1ncnc(C2CC2)c1-c1nc2n(n1)CCC(=O)N2C(C)c1ccc(-n2nc(C(F)(F)F)cc2OCC(F)F)cc1 (stereo not shown) [Example 214]
3 | 6.30 to 7.00 | CC(c1ccc(-n2nc(C(F)(F)F)cc2OCC(F)F)cc1)N1C(=O)CCn2nc(-c3c(Cl)cnn3C(C)C)nc21 (stereo not shown) [Example 215]
4 | 6.30 to 7.00 | COc1ncnc(C2CC2)c1-c1nc2n(n1)CCC(=O)N2C(C)c1ccc(-c2nc(C(F)(F)F)cn2C(C)C)c(F)c1OC (stereo not shown) [Example 218]
5 | > 7.00 | COc1ncnc(C2CC2)c1-c1nc2n(n1)CCC(=O)N2C(C)c1ccc(-c2ncccc2N(C)C)cc1 (stereo not shown) [Example 219]
6 | > 7.00 | COc1ncnc(C2CC2)c1-c1nc2n(n1)CCC(=O)N2C(C)c1ccc(-c2ncccc2OC(C)C)cc1 (stereo not shown) [Example 220]
7 | 6.30 to 7.00 | CNCc1cc(C(F)(F)F)nn1-c1ccc(CN2C(=O)CCn3nc(-c4c(Cl)cnn4C(C)C)cc32)cc1 [Example 224, 2-(4-chloro-1-isopropyl-1H-pyrazol-5-yl)-4-(4-(5-((methylamino)methyl)-3-(trifluoromethyl)-1H-pyrazol-1-yl)benzyl)-6,7-dihydropyrazolo[1,5-α]pyrimidin-5(4H)-one]
8 | 6.30 to 7.00 | CNCc1cc(C(F)(F)F)nn1-c1ccc(CN2C(=O)CCn3nc(-c4c(OC)ncnc4C4CC4)cc32)cc1 [Example 225, 2-(4-cyclopropyl-6-methoxypyrimidin-5-yl)-4-(4-(5-((methylamino)methyl)-3-(trifluoromethyl)-1H-pyrazol-1-yl)benzyl)-6,7-dihydropyrazolo[1,5-a]pyrimidin-5(4H)-one]
9 | 6.30 to 7.00 | CC(C)n1ncc(Cl)c1-c1cc2n(n1)CCC(=O)N2Cc1ccc(OCc2ccccn2)cc1 [Example 226, 2-(4-chloro-1-isopropyl-1H-pyrazol-5-yl)-4-(4-(pyridin-2-ylmethoxy)benzyl)-6,7-dihydropyrazolo[1,5-α]pyrimidin-5(4H)-one]
10 | 6.30 to 7.00 | CCn1cc(C(F)(F)F)nc1-c1ccc(CN2C(=O)CCn3nc(-c4c(Cl)cnn4C(C)CO)cc32)cc1 (stereo not drawn) [Example 227, 2-(4-chloro-1-(1-hydroxypropan-2-yl)-1H-pyrazol-5-yl)-4-(4-(1-ethyl-4-(trifluoromethyl)-1H-imidazol-2-yl)benzyl)-6,7-dihydropyrazolo[1,5-α]pyrimidin-5(4H)-one]
11 | 6.30 to 7.00 | CC(C)n1cc(C(F)(F)F)nc1-c1ccc(CN2C(=O)CCn3nc(-c4c(Cl)cnn4C(C)C)nc32)cc1OCCO [Example 228, 2-(4-chloro-1-isopropyl-1H-pyrazol-5-yl)-4-(3-(2-hydroxyethoxy)-4-(1-isopropyl-4-(trifluoromethyl)-1H-imidazol-2-yl)benzyl)-6,7-dihydro-[1,2,4]triazolo[1,5-α]pyrimidin-5(4H)-one]
12 | 6.30 to 7.00 | CCn1cc(C(F)(F)F)nc1-c1ccc(CN2C(=O)CCn3nc(-c4c(Cl)cnn4C(C)C)c(N)c32)cc1 [Example 229, 3-amino-2-(4-chloro-1-isopropyl-1H-pyrazol-5-yl)-4-(4-(1-ethyl-4-(trifluoromethyl)-1H-imidazol-2-yl)benzyl)-6,7-dihydropyrazolo[1,5-α]pyrimidin-5(4H)-one]
13 | < 6.30 | CC(C)n1ncc(Cl)c1-c1cc2n(n1)CCC(=O)N2Cc1ccc(-n2ccc(N3CCOCC3)n2)cc1 [Example 230, 2-(4-chloro-1-isopropyl-1H-pyrazol-5-yl)-4-(4-(3-morpholino-1H-pyrazol-1-yl)benzyl)-6,7-dihydropyrazolo[1,5-α]pyrimidin-5(4H)-one]
14 | 6.30 to 7.00 | CCn1cc(C(F)(F)F)nc1-c1ccc(CN2C(=O)C(NC(C)=O)Cn3nc(-c4c(Cl)cnn4C(C)C)cc32)cc1 (stereo not drawn) [Example 234, N-(2-(4-chloro-1-isopropyl-1H-pyrazol-5-yl)-4-(4-(1-ethyl-4-(trifluoromethyl)-1H-imidazol-2-yl)benzyl)-5-oxo-4,5,6,7-tetrahydropyrazolo[1,5-α]pyrimidin-6-yl)acetamide]
15 | 6.30 to 7.00 | CCn1cc(C(F)(F)F)nc1-c1ccc(NC2CCCn3nc(-c4c(Cl)cnn4C(C)C)nc32)cc1 (stereo not drawn) [Example 256, 2-(4-chloro-1-isopropyl-1H-pyrazol-5-yl)-N-(4-(1-ethyl-4-(trifluoromethyl)-1H-imidazol-2-yl)phenyl)-5,6,7,8-tetrahydro-[1,2,4]triazolo[1,5-α]pyridin-8-amine]
16 | 6.30 to 7.00 | CCn1cc(C(F)(F)F)nc1-c1ccc(N(C)C2CCCn3nc(-c4c(Cl)cnn4C(C)C)nc32)cc1F (stereo not shown) [Example 259]
17 | 6.30 to 7.00 | CCn1cc(C(F)(F)F)nc1-c1ccc(N(C)C2CCCn3nc(-c4c(Cl)cnn4C(C)C)nc32)cc1 (stereo not shown) [Example 260]
18 | < 6.30 | CCn1cc(C(F)(F)F)nc1-c1ccc(CN2C(=O)CCn3nc(-c4ccnn4C(C)C)c(Cl)c32)cc1 [Example 268, 3-chloro-4-(4-(1-ethyl-4-(trifluoromethyl)-1H-imidazol-2-yl)benzyl)-2-(1-isopropyl-1H-pyrazol-5-yl)-6,7-dihydropyrazolo[1,5-α]pyrimidin-5(4H)-one]
19 | < 6.30 | CCn1cc(C(F)(F)F)nc1-c1ccc(NC2CCCn3nc(-c4ccnn4C(C)C)c(Cl)c32)cc1F (stereo not drawn) [Example 269, 3-chloro-N-(4-(1-ethyl-4-(trifluoromethyl)-1H-imidazol-2-yl)-3-fluorophenyl)-2-(1-isopropyl-1H-pyrazol-5-yl)-4,5,6,7-tetrahydropyrazolo[1,5-α]pyridin-4-amine]
20 | 6.30 to 7.00 | CC(C)n1ncc(Cl)c1-c1cc2n(n1)CCC(=O)N2Cc1ccc(-c2ncccc2OC(F)F)c(Cl)c1 [Example 271, 2-(4-chloro-1-isopropyl-1H-pyrazol-5-yl)-4-(3-chloro-4-(3-(difluoromethoxy)pyridin-2-yl)benzyl)-6,7-dihydropyrazolo[1,5-α]pyrimidin-5(4H)-one]
21 | < 6.30 | CC(C)n1ncc(Cl)c1-c1cc2n(n1)CCC(=O)N2Cc1ccc(-c2cncc(C(F)(F)F)n2)c(Cl)c1 [Example 272]
22 | < 6.30 | CC(C)n1ncc(Cl)c1-c1cc2n(n1)CCC(=O)N2Cc1ccc(-c2nccc(C(F)(F)F)n2)c(Cl)c1 [Example 273]

Row | pIC50 | Structure (SMILES)
23 | 6.30 to 7.00 | COc1nccnc1-c1ccc(CN2C(=O)CCn3nc(-c4c(Cl)cnn4C(C)C)cc32)cc1Cl [Example 274]
24 | 6.30 to 7.00 | Cc1cn2ccnc(-c3ccc(CN4C(=O)CCn5nc(-c6c(Cl)cnn6C(C)C)cc54)cc3Cl)c2n1 [Example 275]
25 | 6.30 to 7.00 | CC(C)n1ncc(Cl)c1-c1cc2n(n1)CCC(=O)N2Cc1ccc(-c2ncnn3cccc23)c(Cl)c1 [Example 276]
26 | < 6.30 | Cc1nc(-c2ccc(CN3C(=O)CCn4nc(-c5c(Cl)cnn5C(C)C)cc43)cc2Cl)cn1C [Example 277]
27 | < 6.30 | Cc1ccnnc1-c1ccc(CN2C(=O)CCn3nc(-c4c(Cl)cnn4C(C)C)cc32)cc1Cl [Example 278]
28 | < 6.30 | CC(C)n1ncc(Cl)c1-c1cc2n(n1)CCC(=O)N2Cc1ccc(-c2ncccc2OC(F)(F)F)c(Cl)c1 [Example 279]
29 | < 6.30 | Cc1ccn2ncnc(-c3ccc(CN4C(=O)CCn5nc(-c6c(Cl)cnn6C(C)C)cc54)cc3Cl)c12 [Example 280]
30 | < 6.30 | Cc1cc(-c2ccc(CN3C(=O)CCn4nc(-c5c(Cl)cnn5C(C)C)cc43)cc2Cl)n(C)n1 [Example 281]
31 | < 6.30 | Cc1ccc(F)c(-c2ccc(CN3C(=O)CCn4nc(-c5c(Cl)cnn5C(C)C)cc43)cc2Cl)n1 [Example 282]
32 | < 6.30 | CC(C)n1ncc(Cl)c1-c1cc2n(n1)CCC(=O)N2Cc1ccc(-c2ncccc2C(F)(F)F)c(Cl)c1 [Example 283]
33 | < 6.30 | Cc1ncc(-c2ccc(CN3C(=O)CCn4nc(-c5c(Cl)cnn5C(C)C)cc43)cc2Cl)n1C [Example 284]
34 | < 6.30 | COc1ccc(-c2ccc(CN3C(=O)CCn4nc(-c5c(Cl)cnn5C(C)C)cc43)cc2Cl)nc1 [Example 285]
35 | < 6.30 | COc1ccnc(-c2ccc(CN3C(=O)CCn4nc(-c5c(Cl)cnn5C(C)C)cc43)cc2Cl)n1 [Example 286]
36 | < 6.30 | CC(C)n1ncc(Cl)c1-c1cc2n(n1)CCC(=O)N2Cc1ccc(-c2nn(C)cc2C#N)c(Cl)c1 [Example 287]
37 | < 6.30 | Cc1nn(C)c(C)c1-c1ccc(CN2C(=O)CCn3nc(-c4c(Cl)cnn4C(C)C)cc32)cc1Cl [Example 289]
38 | 6.30 to 7.00 | COc1cn(C)nc1-c1ccc(CN2C(=O)CCn3nc(-c4c(Cl)cnn4C(C)C)cc32)cc1Cl [Example 292]
39 | < 6.30 | COc1ccnnc1-c1ccc(CN2C(=O)CCn3nc(-c4c(Cl)cnn4C(C)C)cc32)cc1Cl [Example 293]
40 | 6.30 to 7.00 | COc1ncnc(C2CC2)c1-c1nc2n(n1)CCC(=O)N2Cc1ccc(-c2ncccc2OC(C)C)c(Cl)c1 [Example 295]
41 | 6.30 to 7.00 | CC(C)n1cc(F)nc1-c1ccc(CN2C(=O)CCn3nc(-c4c(Cl)cnn4C(C)C)cc32)cc1Cl [Example 297]
42 | 6.30 to 7.00 | COc1c(C)ccnc1-c1ccc(CN2C(=O)CCn3nc(-c4c(Cl)cnn4C(C)C)cc32)cc1Cl [Example 298]
43 | < 6.30 | CC(C)n1ncc(Cl)c1-c1cc2n(n1)CCC(=O)N2Cc1ccc(-c2nccc3c2N(C)CCO3)c(Cl)c1 [Example 299]
